Data from PMC10366102, “Dose escalation and expansion cohorts in patients with advanced breast cancer in a Phase I study of the CDK7-inhibitor samuraciclib” (Nature Communications, 2023).

Assays:
CYP2B6 = system: CYP2B6; parameters: method as in ref IB; settings: human microsomes; ref IB; cited from earlier work
[1] = parameters: method as in ref IB; settings: ref IB; cited from earlier work
[2] = system: patients with advanced malignancies; assay: Safety pooled across study modules; type: in vivo
Method: These were summarized by Medical Dictionary for Regulatory
adverse events (SAEs) were analyzed and reported separately. Details of any deaths were listed. All
were listed individually by patient and summarized descriptively. For urinalysis parameters, any
positive. Abnormal physical examina tion findings were listed.

[3] = system: patient-derived xenograft models of TNBC; parameters: method as in Bahl et al, 2017; settings: ref Bahl et al, 2017; cited from earlier work
CYP2D6 = system: CYP2D6; parameters: method as in ref IB; settings: human microsomes; ref IB; cited from earlier work
[4] = system: Han Wistar (Crl:WI [Han]) rats; settings: cited from earlier work
[5] = parameters: method as in ref IB; settings: mouse; ref IB; cited from earlier work
reticulocyte counts = assay: Reticulocyte counts in Module 1A patients; type: in vivo, human
Source text: Enumeration of reticulocyte counts was used as a biomechanical PDc marker, based on the mechanistic r ationale and non-clinical d ata d escrib ed in Section V1.1.4. A cr oss all dose l evels […]
2). Subjects who cam e o ff treatment fo r unrelated reasons have shown a s ubsequent increase […]
induced and reversible.Of note, across dose levels and cycl es anaemia has been uncommon to date (see IB). However, it is to be recognized that onl y few Module 1A patients have stayed on CT7001 for four months or longer.
Fi g u re 2: Average reticulocyte counts across first three dosing cohorts (120, 240 & 480 […]
Reticulocyte co unts for subj ects across the three cohorts were monitored over time. Values on treatment were nor malized to the avera ge value observed for each patient fro m scree ni ng a nd p re-treatment c ycle 0 sa mp les. Data are mean ± standard error of the mean for between n=35 and n=1 samples (denoted by symbol color). Linear […]
V1.1.5.4 Minimum Biologically Active Dos e (MBA D)
The study’s SRC originally d eclar ed 240 mg OD as MBAD based on observed target toxicit y (diarrhoea), target-medi ated PDc ef fect on reticul ocyt e counts and preliminar y si gnals of anti-tumour activity. This prompted the opening of a cohort with paired breast cancer biopsies at […]
similar biological activity as observed for 240 m g OD, including PDc and anti-tumour ef fects. […]

[6] = Module 1 (both parts) and Module 2A
[7] = as of 16 November 2020, 115 patients

## CC(C)c1cnn2c(NCc3ccccc3)cc(NC[C@H]3CCNC[C@@H]3O)nc12 [samuraciclib, Samuraciclib]
CYP2B6
  IC50: > 50 µM
[1]
  Solubility: pH-dependent solubility
[2]; 1 at 180mg BID and 1 at 360mg OD
  Events of Grade 4 thrombocytopenia: 2 events
[2]; 1 at 240mg OD and 2 at 360mg
  Events of Grade 1 platelet count decreased: 3 events
[2]; 96/98 patients, Modules 1A, 1B-1, 2A
  Patients with at least one AE considered related to samuraciclib: 98.0%
[2]; Grade 1 at 360mg OD and 180mg BID
  Events of neutropenia/white blood cell count decreased: 2 events
[2]; [6]
  Deaths considered related to samuraciclib treatment: None
  Patients who died following an AE: 5 patients
  SAEs considered related to study treatment: 6
  Serious adverse events (not including deaths): 27 patients
[2]; Module 1B-1 and Module 2A
  Recovery of platelets after stopping samuraciclib: ≤ 28 days
[2]; across dose levels, largely Grade 1, as of 16 November 2020
  Patients with diarrhoea, nausea and vomiting: more than 75%
[2]; [7]
  Events of anaemia: 16 events
  Events of increased ALT: 14 events
  Events of increased AST: 16 events
  Platelet related AEs: 13
[2]; at 360mg OD
  Events of Grade 1 thrombocytopenia: 4 events
  Events of Grade 2 platelet count decreased: 1 event
  Events of Grade 2 thrombocytopenia: 2 events
  Events of Grade 3 thrombocytopenia: 1 event
[2]; discussion
  Thrombocytopenia reported as Grade ≥4: 3 patients
[3]
  Activity in vivo: encouraging activity
CYP2D6
  IC50: […]
[4]; 120 mg/kg/day, Han Wistar rats, ref IB
  Findings in 4-week oral gavage study: deaths and severe clinical
[4]; rat, in vivo
  HNSTD (middle dose tested): 60 mg/kg
[5]
  Oral bioavailability: good oral bioavailability
Reticulocyte counts; across all dose levels tested in Module 1A
  Reticulocyte counts: decline in reticulocyt
Reticulocyte counts; p = 0.08
  Increase of reticulocyte counts after coming off treatment: 25%
